Experimental data reported in paper PMC5766233, “Ternary copper(II) complex: NCI60 screening, toxicity studies, and evaluation of efficacy in xenograft models of nasopharyngeal carcinoma” (PLoS ONE, 2018).

How the values were obtained:
CYP 2C19 = CYP 2C19 (Homo sapiens, UniProt P33261); assay: CYP450 inhibition assay, pooled human liver microsomes; conditions: read-out: IC50 CYP 2C19; probe S-mephenytoin
Experimental: (§1) In the CYP inhibition assay, human liver microsomes were incubated with the Cu(II) complex or reference standard. The inhibitory effects of these compounds were investigated against the major CYP isoforms namely 1A2, 2C9, 2C19, 2D6, 2B6, 2C8 and 3A4 with their respective isoform probe substrates in one reaction mixture (pooled probe substrate format using LC-MS/MS).
(§2) Pooled human liver microsomes (Sekisui Xeno Tech, LLC., Kansas City, KS, USA) were incubated with different concentrations of Cu(II) complex or reference standards in buffer containing 0.1% DMSO for 10 min at 37°C and the residual enzyme activity was measured using pooled probe substrates method by pooled LC-MS/MS. Briefly, incubation mixtures were prepared in a total volume of 200 μL with final component concentrations as follows: 0.1 M potassium phosphate buffer (pH 7.4), 1.5 mM NADPH, and 0.25 mg/ml HLM. […] After 20 min of incubation, the reactions were terminated by addition of 200 μL ice-cold acetonitrile (Rankem, Avantor Performance Materials India Limited, Andhra Pradesh, India) containing telmisartan and carbamazepine as internal standards (all probe substrates and standards were from Sigma Aldrich). Each reaction mixture was centrifuged at 3,500 rpm for 5 min and the supernatant was subjected to LC-MS/MS analysis. The percent inhibition was calculated using the following equation: %Inhibition=100‑[(activityintestwells/activityinbasalcontrolwells)×100]

CYP 2C8 = biological target: T1, CYP 2C8 (Homo sapiens, UniProt P10632); assay: as above; conditions: read-out: IC50 CYP 2C8; probe amodiaquine
T1 sequence (P10632 1-490): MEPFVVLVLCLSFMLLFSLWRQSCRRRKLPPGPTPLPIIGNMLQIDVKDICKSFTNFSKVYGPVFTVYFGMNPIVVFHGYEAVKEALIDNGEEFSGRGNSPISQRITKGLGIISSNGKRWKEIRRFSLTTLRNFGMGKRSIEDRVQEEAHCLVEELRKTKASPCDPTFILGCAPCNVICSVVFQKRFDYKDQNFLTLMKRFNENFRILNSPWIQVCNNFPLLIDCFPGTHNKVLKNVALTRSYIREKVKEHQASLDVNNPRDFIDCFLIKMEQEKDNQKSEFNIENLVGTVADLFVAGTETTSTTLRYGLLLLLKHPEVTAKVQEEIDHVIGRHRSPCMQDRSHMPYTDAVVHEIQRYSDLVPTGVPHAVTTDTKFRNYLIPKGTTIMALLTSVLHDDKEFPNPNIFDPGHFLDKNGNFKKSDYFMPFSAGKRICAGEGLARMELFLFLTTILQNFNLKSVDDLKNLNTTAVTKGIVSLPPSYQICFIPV
Experimental: as §1, §2

CYP 2B6 = biological target: T2, CYP 2B6 (Homo sapiens, UniProt P20813); assay: as above; conditions: read-out: IC50 CYP 2B6; probe bupropion
T2 sequence (P20813 1-491): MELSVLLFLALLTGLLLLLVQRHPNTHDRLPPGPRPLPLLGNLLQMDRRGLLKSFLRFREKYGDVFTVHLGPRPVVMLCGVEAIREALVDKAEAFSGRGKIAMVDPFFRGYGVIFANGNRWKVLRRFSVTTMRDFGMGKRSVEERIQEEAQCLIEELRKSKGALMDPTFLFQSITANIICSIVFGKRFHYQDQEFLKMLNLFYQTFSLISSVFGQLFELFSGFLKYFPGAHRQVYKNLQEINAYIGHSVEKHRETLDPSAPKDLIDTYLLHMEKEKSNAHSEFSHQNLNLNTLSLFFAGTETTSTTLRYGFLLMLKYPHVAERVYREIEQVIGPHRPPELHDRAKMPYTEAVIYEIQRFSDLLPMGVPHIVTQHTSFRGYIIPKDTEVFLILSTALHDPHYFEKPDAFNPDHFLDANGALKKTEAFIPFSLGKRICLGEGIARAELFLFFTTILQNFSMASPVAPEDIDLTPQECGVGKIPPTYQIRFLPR
Experimental: as §1, §2

CYP1A = assay: Cytochrome P450 induction assay in rat primary hepatocytes, CYP1A; assay type: in vitro ADME; conditions: for Fold induction CYP1A: 3 days; for % of positive control CYP1A: positive control 3-methyl cholanthrene 1.0 μM
Text: %Activity=(averagearearatiooftreated/averagearearatioofbasalcontrol)x100

CYP 3A4 = biological target: T3, CYP 3A4 (Homo sapiens, UniProt P08684); assay: CYP450 inhibition assay, pooled human liver microsomes; assay type: in vitro ADME; conditions: probe midazolam
T3 construct: tissue Sekisui Xeno Tech, LLC; host or cells: pooled human liver microsomes
Experimental: as §1, §2

CYP 1A2 = biological target: T4, CYP 1A2 (Homo sapiens, UniProt P05177); assay: as above; assay type: in vitro ADME; conditions: probe phenacetin
T4 construct: tissue Sekisui Xeno Tech, LLC; host or cells: pooled human liver microsomes
T4 sequence (P05177 1-516): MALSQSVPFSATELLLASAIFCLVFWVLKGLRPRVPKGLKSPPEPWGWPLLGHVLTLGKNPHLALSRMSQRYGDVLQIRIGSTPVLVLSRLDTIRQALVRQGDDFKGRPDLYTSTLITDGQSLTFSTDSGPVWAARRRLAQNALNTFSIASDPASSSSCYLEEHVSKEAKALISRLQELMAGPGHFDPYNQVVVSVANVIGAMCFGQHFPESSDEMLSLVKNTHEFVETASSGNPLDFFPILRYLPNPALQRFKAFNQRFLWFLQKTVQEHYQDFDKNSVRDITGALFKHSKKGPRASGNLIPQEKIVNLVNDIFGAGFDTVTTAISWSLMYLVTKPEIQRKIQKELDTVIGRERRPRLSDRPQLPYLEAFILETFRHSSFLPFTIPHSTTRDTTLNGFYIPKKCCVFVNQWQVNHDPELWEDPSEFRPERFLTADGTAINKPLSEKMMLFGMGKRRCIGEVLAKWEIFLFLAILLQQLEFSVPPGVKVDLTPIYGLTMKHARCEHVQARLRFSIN
Experimental: as §1, §2

CYP 2D6 = biological target: T5, CYP 2D6 (Homo sapiens, UniProt P10635); assay: as above; assay type: in vitro ADME; conditions: probe dextromethorphan
T5 construct: tissue Sekisui Xeno Tech, LLC; host or cells: pooled human liver microsomes
Experimental: as §1, §2

CYP 2C19, sequence (P33261 whole entry, canonical isoform): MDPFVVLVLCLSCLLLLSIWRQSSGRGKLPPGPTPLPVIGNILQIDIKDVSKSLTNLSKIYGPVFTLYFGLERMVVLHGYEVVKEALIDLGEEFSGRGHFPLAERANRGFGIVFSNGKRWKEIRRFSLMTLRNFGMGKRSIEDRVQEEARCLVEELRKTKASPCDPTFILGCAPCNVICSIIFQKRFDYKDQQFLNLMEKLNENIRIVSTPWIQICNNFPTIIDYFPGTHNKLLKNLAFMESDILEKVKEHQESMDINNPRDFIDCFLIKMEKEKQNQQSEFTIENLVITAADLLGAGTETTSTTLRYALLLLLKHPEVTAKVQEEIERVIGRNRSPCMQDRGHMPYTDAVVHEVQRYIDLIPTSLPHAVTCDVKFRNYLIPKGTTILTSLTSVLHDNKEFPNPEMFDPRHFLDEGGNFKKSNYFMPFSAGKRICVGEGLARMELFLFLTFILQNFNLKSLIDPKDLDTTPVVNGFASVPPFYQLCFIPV
T5 sequence (P10635 whole entry): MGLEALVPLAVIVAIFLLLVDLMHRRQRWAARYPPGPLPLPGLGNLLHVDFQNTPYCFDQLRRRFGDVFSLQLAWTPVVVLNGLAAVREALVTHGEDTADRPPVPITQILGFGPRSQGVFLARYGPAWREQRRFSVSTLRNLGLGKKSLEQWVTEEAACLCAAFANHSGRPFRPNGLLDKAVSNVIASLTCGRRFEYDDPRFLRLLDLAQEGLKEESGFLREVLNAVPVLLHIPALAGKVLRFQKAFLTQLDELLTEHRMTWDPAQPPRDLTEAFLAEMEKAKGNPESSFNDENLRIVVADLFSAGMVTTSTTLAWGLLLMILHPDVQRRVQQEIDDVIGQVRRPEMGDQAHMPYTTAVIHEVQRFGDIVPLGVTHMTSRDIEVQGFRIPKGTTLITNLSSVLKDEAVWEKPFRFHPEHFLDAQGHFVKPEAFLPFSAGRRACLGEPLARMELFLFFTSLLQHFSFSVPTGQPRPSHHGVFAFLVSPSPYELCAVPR
T3 sequence (P08684 whole entry): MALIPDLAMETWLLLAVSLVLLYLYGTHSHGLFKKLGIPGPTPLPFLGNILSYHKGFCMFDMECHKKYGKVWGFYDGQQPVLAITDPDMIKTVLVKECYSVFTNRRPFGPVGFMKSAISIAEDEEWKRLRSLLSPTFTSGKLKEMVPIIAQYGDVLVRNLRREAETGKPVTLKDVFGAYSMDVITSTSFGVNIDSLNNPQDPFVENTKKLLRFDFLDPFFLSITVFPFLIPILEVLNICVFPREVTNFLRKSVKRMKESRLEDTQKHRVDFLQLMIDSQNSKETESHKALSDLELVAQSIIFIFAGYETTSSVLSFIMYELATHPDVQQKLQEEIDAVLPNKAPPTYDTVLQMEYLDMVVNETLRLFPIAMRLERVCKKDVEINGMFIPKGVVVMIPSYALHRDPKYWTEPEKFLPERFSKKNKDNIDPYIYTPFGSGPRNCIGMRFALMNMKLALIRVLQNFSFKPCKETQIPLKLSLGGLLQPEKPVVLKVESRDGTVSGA

`CC(C)(N)C(=O)[O-].O.O=[N+]([O-])[O-].[Cu+2].c1cnc2c(c1)ccc1cccnc12` [Cu(II) complex, [Cu(phen)(C-dmg)(H2O)]NO3] was tested, and the IC50 (CYP 2C19) was 10.3 µM, the IC50 (CYP 2C8) was 10.3 µM and the IC50 (CYP 2B6) was 7.59 µM. The “Fold induction CYP1A” value (CYP1A; 0.1 μM) was 1.1, the “% of positive control CYP1A” value (CYP1A; 0.1 μM) was 10.1% and the “Fold induction CYP1A” value (CYP1A; 0.3 μM) was 1.4. For the same compound, the “% of positive control CYP1A” value (CYP1A; 0.3 μM) was 13.0%, the “Fold induction CYP1A” value (CYP1A; 1.0 μM) was 0.8 and the “% of positive control CYP1A” value (CYP1A; 1.0 μM) was 7.4%. The “induction, % of positive control, CYP1A” value (CYP1A; 0.1-1.0 μM) was under 13%, the IC50 (CYP 3A4) was 5.46 µM and the IC50 (CYP 1A2) was 8.01 µM. It also gave an IC50 (CYP 2D6) of 10.2 µM.
